Experimental data: PMC3366211, “Leishmanicidal Activity of Nine Novel Flavonoids from Delphinium staphisagria” (The Scientific World Journal, 2012)

Experiments:
[1] = system: L. infantum promastigote forms; test: Promastigote forms assay; assay type: cell-based, Leishmania infantum; details: for SI Promastigote forms: IC50 macrophages/IC50 parasite form; for IC50: Leishmania infantum, 72 h; for times SI exceeds the reference drug SI (all forms): extracellular and intracellular forms; for times SI exceeds the reference drug SI (all forms) / number of times that compound SI exceeds the reference drug SI, Promastigote forms: reference Glucantime; for number of times that compound SI exceeds the reference drug SI, Promastigote forms: in brackets
Experimental: (§1) The compounds obtained were dissolved in the culture medium, at dosages of 100, 50, 25, 10, and 1 μM. The effects of each compound against promastigote forms were tested at 72 hours using a Neubauer haemocytometric chamber. The antileishmanial effect is expressed as the IC50, that is, the concentration required to give 50% inhibition, calculated by linear regression analysis from the Kc values of the concentrations employed.

[2] = system: L. braziliensis promastigote forms; test: Promastigote forms assay; assay type: cell-based, Leishmania braziliensis; details: for SI Promastigote forms: IC50 macrophages/IC50 parasite form; for IC50: Leishmania braziliensis, 72 h; for number of times that compound SI exceeds the reference drug SI, Promastigote forms: in brackets, reference Glucantime
Experimental: as §1

[3] = system: L. infantum axenic amastigote forms; test: Axenic amastigote forms assay; assay type: cell-based, Leishmania infantum; details: for SI Axenic amastigote forms: IC50 macrophages/IC50 parasite form; for IC50: Leishmania infantum, 48 hours per method (72 h); for number of times that compound SI exceeds the reference drug SI, Axenic amastigote forms: in brackets, reference Glucantime
Experimental: (§2) Axenic amastigotes forms of L. infantum and L. braziliensis were cultured following the methodology described previously by Moreno et al.. Thus, promastigote transformation to amastigotes was obtained after three days of culture in M199 medium (Invitrogen, Leiden, The Netherlands) supplemented with 10% heat-inactivated FCS, 1 g/L β-alanine, 100 mg/L L-asparagine, 200 mg/L sacarose, 50 mg/L sodium pyruvate, 320 mg/L malic acid, 40 mg/L fumaric acid, 70 mg/L succinic acid, 200 mg/L α-ketoglutaric acid, 300 mg/L citric acid, 1.1 g/L sodium bicarbonate, 5 g/L MES, 0.4 mg/L hemin, and 10 mg/L gentamicin pH 5.4 at 37°C. The effect of each compound against axenic amastigotes forms was tested at 48 hours using a Neubauer haemocytometric chamber. The antileishmanial effect is expressed as the IC50.

[4] = system: L. braziliensis axenic amastigote forms; test: Axenic amastigote forms assay; assay type: cell-based, Leishmania braziliensis; details: for SI Axenic amastigote forms: IC50 macrophages/IC50 parasite form; for IC50: Leishmania braziliensis, 48 hours per method (72 h); for number of times that compound SI exceeds the reference drug SI, Axenic amastigote forms: in brackets, reference Glucantime
Experimental: as §2

[5] = system: L. infantum intracellular amastigote forms; test: Intracellular amastigote forms assay in J774.2 macrophages; assay type: cell-based, Leishmania infantum; details: for SI Intracellular amastigote forms / number of times that compound SI exceeds the reference drug SI, Intracellular amastigote forms: L. infantum; for SI Intracellular amastigote forms: IC50 macrophages/IC50 parasite form; for number of times that compound SI exceeds the reference drug SI, Intracellular amastigote forms: in brackets, reference Glucantime; for IC50: Leishmania infantum, L. infantum in J774.2 macrophages, 72 h
Experimental: (§3) Cells were seeded at a density of 1 × 10^4 cells/well in 24-well microplates (Nunc) with rounded coverslips on the bottom and cultured for 2 days. Afterwards the cells were infected in vitro with promastigote forms of L. infantum and L. braziliensis, at a ratio of 10 : 1 during 24 hours. The non-phagocytosed parasites were removed by washing, and then the drugs (at 1, 10, 25, 50, 100 μM) were added. Macrophages with the drugs were incubated for 72 hours at 37°C in 5% CO2.
(§4) Drug activity was determined on the basis of number of amastigotes in treated and untreated cultures in methanol-fixed and Giemsa-stained preparations. The number of amastigotes was determined by analyzing 200 host cells distributed in randomly chosen microscopic fields. The antileishmanial effect is expressed as the IC50 values are the means of three separate determinations.

[6] = system: L. braziliensis intracellular amastigote forms; test: as above; assay type: cell-based, Leishmania braziliensis; details: for SI Intracellular amastigote forms / number of times that compound SI exceeds the reference drug SI, Intracellular amastigote forms: L. braziliensis; for SI Intracellular amastigote forms: IC50 macrophages/IC50 parasite form; for number of times that compound SI exceeds the reference drug SI, Intracellular amastigote forms: in brackets, reference Glucantime; for IC50: Leishmania braziliensis, L. braziliensis in J774.2 macrophages, 72 h
Experimental: as §3, §4

J774.2 macrophages = test: Cytotoxicity test for macrophages (flow cytometry); assay type: cell-based, BALB/c rat; details: Mus musculus, J774.2, 72 h, J774.2 macrophages after 72 h of culture; read-out: Macrophage toxicity IC50
Experimental: J774.2 macrophages (ECACC number 91051511) were originally obtained from a tumour in a female BALB/c […] in 1968. The cytotoxicity test for macrophages was performed according to the methodology of González et al.. After 72 hours of treatment, cell viability was determined by flow cytometry. Thus, 100 μL/well of propidium iodide solution ([…]) was added and incubated for 10 min at 28°C in darkness. Afterwards, 100 μL/well of fluorescein diacetate (100 ng/mL) was added and incubated under the same conditions. Finally, the cells were recovered by centrifugation at 400 g for 10 min and the precipitate washed with phosphate buffered saline (PBS). Flow cytometric analysis was performed with a FACSVantage flow cytometer (Becton Dickinson). The percentage viability was calculated in comparison with the control culture. The IC50 was calculated using linear regression analysis from the Kc values of the concentrations employed.

[7] = system: epimastigote forms of Trypanosoma cruzi; set-up: method as in PMID 21466157; details: cited from earlier work

IC50 [1] [µM] | IC50 [2] [µM] | IC50 [3] [µM] | IC50 [4] [µM] | IC50 [5] [µM] | IC50 [6] [µM] | Structure (SMILES) | SI Promastigote forms [1] | times SI exceeds the reference drug SI (all forms) [1] [times] | number of times that compound SI exceeds the reference drug SI, Promastigote forms [1] | SI Promastigote forms [2] | number of times that compound SI exceeds the reference drug SI, Promastigote forms [2] | SI Axenic amastigote forms [3] | number of times that compound SI exceeds the reference drug SI, Axenic amastigote forms [3] | SI Axenic amastigote forms [4] | number of times that compound SI exceeds the reference drug SI, Axenic amastigote forms [4] | SI Intracellular amastigote forms [5] | number of times that compound SI exceeds the reference drug SI, Intracellular amastigote forms [5] | SI Intracellular amastigote forms [6] | number of times that compound SI exceeds the reference drug SI, Intracellular amastigote forms [6] | IC50 (J774.2 macrophages) [µM] | other results
34.1 ± 1.6 | 25.1 ± 2.5 | 32.7 ± 5 | 27.9 ± 2.7 | 42.3 ± 3.9 | 30.2 ± 3.8 | CC(=O)O[C@H]1[C@H](Oc2c(-c3ccc(O)cc3)oc3cc(O)cc(O)c3c2=O)O[C@H](CO)[C@@H](O)[C@@H]1O [Compound 2] | 7.8 | < 50 | 10 | 10.6 | 18 | 8.2 | 14 | 9.6 | 19 | 6.3 | 13 | 8.8 | 18 | 267 ± 11 | IC50 compared with benznidazole [7]: significantly lower IC50 values compared with benznidazole
35.1 ± 3.3 | 28.1 ± 1 | 29.2 ± 2.8 | 22.6 ± 1.7 | 45.9 ± 2.7 | 32.2 ± 1.6 | O=c1c(O[C@@H]2O[C@H](CO)[C@@H](O)[C@H](O)[C@H]2O)c(-c2ccc(O)cc2)oc2cc(O)cc(O)c12 [Compound 1, astragalin] | 6.7 | < 50 | 8 | 8.4 | 14 | 8.1 | 14 | 10.4 | 21 | 5.1 | 10 | 7.3 | 15 | 236 ± 17.9 | IC50 compared with benznidazole [7]: significantly lower IC50 values compared with benznidazole
40.4 ± 3.4 | 28.4 ± 3 | 29.2 ± 3.1 | 32.9 ± 3 | 38.1 ± 1.6 | 41.9 ± 4 | CC(=O)OC[C@H]1O[C@@H](Oc2c(-c3ccc(OC(C)=O)cc3)oc3cc(OC(C)=O)cc(OC(C)=O)c3c2=O)[C@H](OC(C)=O)[C@@H](OC(C)=O)[C@@H]1OC(C)=O [Compound 3] | 8.7 | < 50 | 11 | 12.3 | 21 | 12.0 | 20 | 10.7 | 21 | 9.2 | 18 | 8.4 | 17 | 351 ± 26.8 | IC50 compared with benznidazole [7]: significantly lower IC50 values compared with benznidazole
